Data as given in patent US20240238242A1, “EGCG buccal tablet and use thereof” (priority 2023, published 2024).
Where “and” joins values, the source holds several entries; their conditions need not be identical. Identical values can stand only once. Like-named read-outs stand apart in the source and are kept apart here.

Experiments:
[1] = system: Influenza A H3N2 virus (H3N2); format: cell-based; details: for average inactivation efficiency against virus / inactivation efficiency against the virus: H3N2 virus; for inactivation efficiency against the virus: single experiment
[2] = system: Madin-darby canine kidney cells (MDCK)

O=C(O[C@@H]1Cc2c(O)cc(O)cc2O[C@@H]1c1cc(O)c(O)c(O)c1)c1cc(O)c(O)c(O)c1 [EGCG, Epigallocatechin gallate]
CPE test, virus replication in cell wells 1-10 ([1]; 1 mM EGCG + H3N2 virus, 1 minute, third experiment, dilution factor 10^4): + | CPE test, virus replication in cell wells 1-10 ([1]; 1 mM EGCG + H3N2 virus, 1 minute, third experiment, dilution factor 10^5): − and + | CPE test, virus replication in cell wells 1-10 ([1]; 1 mM EGCG + H3N2 virus, 1 minute, third experiment, dilution factor 10^6): − | CPE test, virus replication in cell wells 1-10 ([1]; 1 mM EGCG + H3N2 virus, 1 minute, third experiment, dilution factor 10^7): − | CPE test, virus replication in cell wells 1-10 ([1]; 1 mM EGCG + H3N2 virus, 1 minute, third experiment, dilution factor 10^8): − | CPE test, virus replication in cell wells 1-10 ([1]; 1 mM EGCG + H3N2 virus, 5 minute, first experiment, dilution factor 10^3): − and + | CPE test, virus replication in cell wells 1-10 ([1]; 1 mM EGCG + H3N2 virus, 5 minute, first experiment, dilution factor 10^4): + and − | CPE test, virus replication in cell wells 1-10 ([1]; 1 mM EGCG + H3N2 virus, 5 minute, first experiment, dilution factor 10^5): − | CPE test, virus replication in cell wells 1-10 ([1]; 1 mM EGCG + H3N2 virus, 5 minute, first experiment, dilution factor 10^6): − | CPE test, virus replication in cell wells 1-10 ([1]; 1 mM EGCG + H3N2 virus, 5 minute, first experiment, dilution factor 10^7): − | CPE test, virus replication in cell wells 1-10 ([1]; 1 mM EGCG + H3N2 virus, 5 minute, first experiment, dilution factor 10^8): − | CPE test, virus replication in cell wells 1-10 ([1]; 1 mM EGCG + H3N2 virus, 5 minute, second experiment, dilution factor 10^3): − | CPE test, virus replication in cell wells 1-10 ([1]; 1 mM EGCG + H3N2 virus, 5 minute, second experiment, dilution factor 10^4): − | CPE test, virus replication in cell wells 1-10 ([1]; 1 mM EGCG + H3N2 virus, 5 minute, second experiment, dilution factor 10^5): − | CPE test, virus replication in cell wells 1-10 ([1]; 1 mM EGCG + H3N2 virus, 5 minute, second experiment, dilution factor 10^6): − | CPE test, virus replication in cell wells 1-10 ([1]; 1 mM EGCG + H3N2 virus, 5 minute, second experiment, dilution factor 10^7): − | CPE test, virus replication in cell wells 1-10 ([1]; 1 mM EGCG + H3N2 virus, 5 minute, second experiment, dilution factor 10^8): − | average inactivation efficiency against virus ([1]; 1 mM EGCG, 1 minute, three experiments): 61.78% | inactivation efficiency against the virus ([1]; 1 mM EGCG, 5 minutes): 99.50% and 99.87% | average inactivation efficiency against virus ([1]; 1 mM EGCG, 5 minutes, two experiments): 99.69% | CPE test, virus replication in cell wells (wells 1-10) ([1]; 5 mM EGCG + H3N2 virus, 1 minute, first experiment, dilution factor 10^4): − | CPE test, virus replication in cell wells (wells 1-10) ([1]; 5 mM EGCG + H3N2 virus, 1 minute, first experiment, dilution factor 10^5): − | CPE test, virus replication in cell wells (wells 1-10) ([1]; 5 mM EGCG + H3N2 virus, 1 minute, first experiment, dilution factor 10^6): − | CPE test, virus replication in cell wells (wells 1-10) ([1]; 5 mM EGCG + H3N2 virus, 1 minute, first experiment, dilution factor 10^7): − | CPE test, virus replication in cell wells (wells 1-10) ([1]; 5 mM EGCG + H3N2 virus, 1 minute, first experiment, dilution factor 10^8): − | CPE test, virus replication in cell wells (wells 1-10) ([1]; 5 mM EGCG + H3N2 virus, 1 minute, second experiment, dilution factor 10^3): + | CPE test, virus replication in cell wells (wells 1-10) ([1]; 5 mM EGCG + H3N2 virus, 1 minute, second experiment, dilution factor 10^4): − | CPE test, virus replication in cell wells (wells 1-10) ([1]; 5 mM EGCG + H3N2 virus, 1 minute, second experiment, dilution factor 10^5): − | CPE test, virus replication in cell wells (wells 1-10) ([1]; 5 mM EGCG + H3N2 virus, 1 minute, second experiment, dilution factor 10^6): − | CPE test, virus replication in cell wells (wells 1-10) ([1]; 5 mM EGCG + H3N2 virus, 1 minute, second experiment, dilution factor 10^7): − | CPE test, virus replication in cell wells (wells 1-10) ([1]; 5 mM EGCG + H3N2 virus, 1 minute, second experiment, dilution factor 10^8): − | CPE test, virus replication in cell wells 1-10 ([1]; 5 mM EGCG + H3N2 virus, 1 minute, third experiment, dilution factor 10^4): − | CPE test, virus replication in cell wells 1-10 ([1]; 5 mM EGCG + H3N2 virus, 1 minute, third experiment, dilution factor 10^5): − | CPE test, virus replication in cell wells 1-10 ([1]; 5 mM EGCG + H3N2 virus, 1 minute, third experiment, dilution factor 10^6): − | CPE test, virus replication in cell wells 1-10 ([1]; 5 mM EGCG + H3N2 virus, 1 minute, third experiment, dilution factor 10^7): − | CPE test, virus replication in cell wells 1-10 ([1]; 5 mM EGCG + H3N2 virus, 1 minute, third experiment, dilution factor 10^8): − | CPE test, virus replication in cell wells 1-10 ([1]; 5 mM EGCG + H3N2 virus, 5 minute, first experiment, dilution factor 10^4): − and + | CPE test, virus replication in cell wells 1-10 ([1]; 5 mM EGCG + H3N2 virus, 5 minute, first experiment, dilution factor 10^5): − and + | CPE test, virus replication in cell wells 1-10 ([1]; 5 mM EGCG + H3N2 virus, 5 minute, first experiment, dilution factor 10^6): − | CPE test, virus replication in cell wells 1-10 ([1]; 5 mM EGCG + H3N2 virus, 5 minute, first experiment, dilution factor 10^7): − | CPE test, virus replication in cell wells 1-10 ([1]; 5 mM EGCG + H3N2 virus, 5 minute, first experiment, dilution factor 10^8): − | CPE test, virus replication in cell wells 1-10 ([1]; 5 mM EGCG + H3N2 virus, 5 minute, second experiment, dilution factor 10^3): + | CPE test, virus replication in cell wells 1-10 ([1]; 5 mM EGCG + H3N2 virus, 5 minute, second experiment, dilution factor 10^4): − | CPE test, virus replication in cell wells 1-10 ([1]; 5 mM EGCG + H3N2 virus, 5 minute, second experiment, dilution factor 10^5): − | CPE test, virus replication in cell wells 1-10 ([1]; 5 mM EGCG + H3N2 virus, 5 minute, second experiment, dilution factor 10^6): − | CPE test, virus replication in cell wells 1-10 ([1]; 5 mM EGCG + H3N2 virus, 5 minute, second experiment, dilution factor 10^7): − | CPE test, virus replication in cell wells 1-10 ([1]; 5 mM EGCG + H3N2 virus, 5 minute, second experiment, dilution factor 10^8): − | inactivation efficiency against the virus ([1]; 5 mM EGCG, 1 minute): 98.74% and 96.84% | average inactivation efficiency against virus ([1]; 5 mM EGCG, 1 minute, three experiments): 98.11% | inactivation efficiency against the virus ([1]; 5 mM EGCG, 5 minutes): 97.49% and 98.74% | average inactivation efficiency against virus ([1]; 5 mM EGCG, 5 minutes, two experiments): 98.32% | CPE test / cytotoxicity, negative control group [2]: − | Cytotoxicity / CPE in cell wells 1-10, negative control group [2]: − | Cytotoxicity / CPE in cell wells, negative control group (EGCG + culture medium) [2]: − | Cytotoxicity / CPE in cell wells, negative control group (wells 1-10) [2]: − | Cytotoxicity / CPE in negative control group [2]: − | Cytotoxicity / CPE per cell well, negative control group [2]: − | Cytotoxicity / CPE test, negative control group [2]: − | cell status in negative control group ([2]; MDCK cells, 0.2 mM group): good growth status | cytotoxicity in negative control group ([2]; MDCK cells, 1 mM group): cytotoxicity was observed | cytotoxicity in negative control group ([2]; MDCK cells, 5 mM group): cytotoxicity was observed | cytotoxicity in negative control group ([2]; MDCK cells, sample of 10 times dilution in the 1 mM group): cytotoxicity was observed
